From patent US20060058320A1, “[1,2,4] Triazolo[1,5-c]pyrimidine derivatives” (KYOWA HAKKO KOGYO CO., LTD., priority 2002, published 2006) come the findings set out here.

Read-outs that look alike come from different tables or passages of the source.

Experiment [1] concerns common marmoset treated with 1-methyl-4-phenyl-1,2,3,6-tetrahydropyridine (MPTP). In words: Parkinson's disease model, MPTP-treated common marmoset. The class given is in vivo. Conditions: symptom score and spontaneous locomotor activity versus solvent-administered group. The method, then:
Parkinson's disease is a disease based on the degeneration and cell death of the nigrostriatal dopaminergic neurons. […] These MPTP-treated primates are known as a model of Parkinson's disease [Proceedings of the National Academy of Science USA, vol. 80, p. 4546 (1983)]. […] 57, p. 37 (1985)].
The test was carried out using 4 female and male common marmosets of 2 to 3 year age (300 to 375 g in body weight, Japan CLEA) per group. MPTP (produced by RBI Co.) was dissolved in physiological saline for injection (produced by Otsuka Pharmaceutical Co., Ltd.), and hypodermically administered to the common marmosets once a day for 5 days in a dose of 2.0 mg/kg. Six weeks or more after the administration, animals showing chronic symptoms of Parkinson's disease were used in the test. Each test compound was used by suspending it in an aqueous solution containing 0.3% Tween 80 and 10% sucrose. Also, a solution containing no test compound was used as a control. One hour before the administration of the test compound, the animals to be tested were put into an observation cage (provided with a spontaneous locomotor activity measuring apparatus) to adapt them to the environment. The symptoms of Parkinson's disease were observed from a one-way see through window at intervals of 30 minutes for 8 hours to score the motor disability. The spontaneous locomotor activity was measured at intervals of 30 minutes for 12 hours by a computer-controlled automatic measuring apparatus. The symptoms of Parkinson's disease were decided on the basis of the criteria of each observation item shown below, and the total of the points was used as the score of each animal.
The effect was decided by comparing average scores of the symptoms of Parkinson's disease in 4 animals per group between the test compound-administered group and the solvent-administered group (significance test: Sign-Wilcoxon test). The spontaneous locomotor activity was also decided by comparison between the test compound-administered group and the solvent-administered group.

A further experiment deals with T1, adenosine A2A receptor (Rattus norvegicus, UniProt P30543).
T1 construct: from tissue; host or cells: rat corpus striatum membrane preparation
T1 sequence (P30543 whole entry): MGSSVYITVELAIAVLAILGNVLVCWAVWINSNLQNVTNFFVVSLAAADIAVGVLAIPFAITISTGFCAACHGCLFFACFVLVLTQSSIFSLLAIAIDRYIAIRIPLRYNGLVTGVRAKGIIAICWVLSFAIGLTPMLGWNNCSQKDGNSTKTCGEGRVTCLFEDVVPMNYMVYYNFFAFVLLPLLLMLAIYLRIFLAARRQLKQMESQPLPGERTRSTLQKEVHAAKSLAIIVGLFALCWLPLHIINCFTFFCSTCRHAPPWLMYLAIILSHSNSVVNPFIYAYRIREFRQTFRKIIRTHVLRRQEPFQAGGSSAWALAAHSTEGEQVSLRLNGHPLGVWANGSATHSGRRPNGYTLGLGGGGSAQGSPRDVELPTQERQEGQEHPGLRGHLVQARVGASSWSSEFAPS
In words: Adenosine A2A receptor binding test (3H-CGS 21680 binding). To be noted: read-out: A2A Receptor inhibition rate (%) at 10^−7 mol/L.

The subject of the next experiment is male SD rats. As to the kind of experiment: Learned helplessness (LH) model. The class given is in vivo. The method, then:
As test animals, 10 to 15 male SD rats (220 to 320 g in body weight, 7 week age, Charles River Japan, Inc., Atsugi) per group were used. During the preliminary feeding period, the animals were bred to be allowed to freely have feed (CRF-1; Oriental Yeast Co., Ltd, Tokyo) and water (tap water) in an animal room at a room temperature of 22 to 24° C. and a humidity of 50 to 60%. Each test compound was orally administered in a dose of 2 mg/kg 1 hour before RF1 (refer to the contents described below) on the second day of the test.
A shuttle box apparatus (TK-401S; produced by UNICOM, Chiba) was used as a learning experimental apparatus. On the first day, the shuttle box was divided into two rooms by setting a partition at its center, and one rat was put in each of the rooms. […] Although each rat was put in the shuttle box for 50 minutes, the charging time of inescapable shock (IES) was set to 25 minutes by computer control using a random duration time (10 to 90 seconds) and random on-off and off-on (10 to 90 seconds).
On the second day, a shuttle box test was carried out by the method of Maier [J. Comp. Physiol. Psychol., vol. 85, pp. 581-592 (1973)] and the method of Geoffroy and Christensen [Drug Dev. Res., vol. 29, pp. 48-55 (1993)] which were slightly modified. The partition at the center of the shuttle box was removed, and the box was divided into two rooms by a hurdle of 2 cm in height instead of the partition. In the shuttle box test, FRI (an electric shock of 0.6 mA was applied to the rat for 5 seconds unless the rat moved to the other room within 5 seconds after the start of buzzer sounds, and when the rat moved to the other room within 5 seconds after the start of buzzer sounds, the floor shock could be avoided, this operation being carried as one trial and repeated 15 times with an interval of 10 seconds between trials.) was carried out, continuously followed by FR2 (an electric shock of 0.6 mA was applied to the rat for 10 seconds, and then an electric shock of 0.6 mA was applied at intervals of 0.5 second for 10 seconds, this operation being carried out as one trial and repeated 15 times with an interval of 15 seconds between trials). Escape reaction was determined by the escape response calculated by the equation below on the assumption that cases showing two escape latency times of less than 10 seconds in FR2 were regarded as successful escape. Escape response (%)=(Number of trials of successful escape/15)×100
Furthermore, migration (intertrial response %) in the box other than the escape reaction observed during a period between trials (resting time) was used as an index of psychomotor stimulant action, the intertrial response being calculated by the following equation. […]

For another experiment, the system named is male ddY mice. In words: Forced swimming method (measurement of immobility time). The class given is in vivo. To be noted: orally administered, 10 mg/kg, one hour before the test; versus solvent group (Steel-test). The method, then:
Ten male ddY mice (21 to 26 g in body weight, Japan SLC) per group were used as test animals. During the preliminary feeding period, the animals were bred to be allowed to freely have feed (CRF-1; Oriental Yeast Co., Ltd, Tokyo) and water (tap water) in an animal room at a room temperature for 23±1° C. and a humidity of 55±5%.
Animals showing abnormal reactions in terms of spontaneous activity, myotonia, eyesight and the like were previously excluded. Each test compound was suspended in a 0.3% Tween 80 solution and orally administered one hour before the test. In the negative control group, 10 mL/kg of a 0.3% Tween 80 solution alone was orally administered. The immobility time was measured according to the Porsolt method [Arch. Int. Pharmacodyn., vol. 229, pp. 327-336 (1977)]. Namely, a cylindrical transparent acrylic water tank (10 cm in diameter and 25 cm in height) was filled with water at a temperature between 23±1° C. to a height of 9 cm, and the mice were forced to swim for 6 minutes. When the mice are put into water, they immediately start to swim trying to escape from the tank, but the motion gradually decreases 1 to 2 minutes thereafter. […] In order to reduce the effects of daily rhythm, the test was carried out using 5 of the 10 animals per group in the morning, and the remaining 5 animals in the afternoon. The immobility time was measured by observing 2 animals at the same time without telling the observers distinctions about the control group administered with the solvent alone and doses of the test compounds. Statistical analysis of the results was carried out by a multiple comparison Steel-test between the solvent-administered group and the test compound-administered group.

Experiment [2] relates to CGS 21680-induced catalepsy. As to the kind of experiment: Activity on CGS 21680-induced catalepsy. Type of experiment: in vivo, mice. To be noted: for inhibition in vivo at 10 mg/kg: Mus musculus, po, read-out: Remission ratio (%); for Total score: total catalepsy score of 10 mice (maximum 50 points; 40 points or less = positive), one hour after administration. In a few lines: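 Male ddY mice, 5 weeks old, ten per group, were dosed orally with compound at 10 mg/kg in 0.3% Tween 80 water, 30 min before CGS 21680 (10 μg/20 μL) was injected into the cerebral ventricle. Catalepsy was scored 1 h after compound dosing by placing forelimbs or hindlimbs on a 4.5 cm stand.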

Setting [3] is: test compound 10^−7 mol/L, 3H-CGS 21680 binding, rat corpus striatum.

In the case of `Nc1nc(C2CCN(CC3CC3)CC2)cc2nc(-c3ccco3)nn12` [Compound 71, 5-Amino-7-[1-(cyclopropylmethyl)piperidin-4-yl]-2-(2-furyl)-[1,2,4]triazolo[1,5-c]pyrimidine], the “effect in the common marmoset MPTP-treated Parkinson's disease model” value (shortened to “effect”) in experiment [1] is “effective”. Further, the inhibition at 0.1 µM at adenosine A2A receptor (setting [3]) was 87%. Besides, the escape response entry in the experiment with male SD rats (IES-loaded rats, 2 mg/kg orally 1 hour before FR1) was “significantly recover a reduced escape response”. Further, the “intertrial responses (index of psychomotor stimulant action)” value in the experiment with male SD rats (versus electric shock loaded control group, 2 mg/kg orally) was “no difference”. In the experiment on male ddY mice, the immobility time result was “significant effect of decreasing the immobility time”.
Take `CC(C)(O)CCN1CC=C(c2cc3nc(-c4ccco4)nn3c(N)n2)CC1` [Compound 76, 5-Amino-7-[1-(3-methyl-3-hydroxybutyl)-1,2,3,6-tetrahydro-pyridin-4-yl]-2-(2-furyl)[1,2,4]triazolo[1,5-c]pyrimidine]: the “effect” value in experiment [1] is on record as “effective”. The inhibition at 0.1 µM on adenosine A2A receptor amounted to 72%. Also, the inhibition in vivo at 10 mg/kg in experiment [2] came to 80%. Moreover, the Total score in experiment [2] (10 mg/kg orally) amounted to 5.
Turning to `CN(CCc1ccccn1)C(=O)c1cc2nc(-c3ccco3)nn2c(N)n1` [Compound 85, 5-Amino-2-(2-furyl)[1,2,4]triazolo[1,5-c]pyrimidine-7-carboxylic acid {N-[2-(2-pyridyl)ethyl]-N-methyl}amide], the “effect” value in experiment [1] was “effective”. Further, the inhibition at 0.1 µM at adenosine A2A receptor (setting [3]) stood at 70%. Also, the inhibition in vivo at 10 mg/kg in experiment [2] (from total score of test group and control group, 10 mg/kg orally) came out at 94%. The molecule also had a Total score in experiment [2] (10 mg/kg orally) of 3.
